Patent US4956294A, “Culture of Streptoverticillium synroense for producing an antibacterial” (Merck & Co., Inc., priority 1989, dated 1990)
In brackets after ≈: the same amount, converted by molar mass.

Assays:
[1] = test system: Vibrio percolans 1272 (8461); assay: Inhibition zone, agar plate; type: cell-based; conditions: Comamonas terrigena, 15λ, read-out: Inhibition Zone Diameter
[2] = test system: Xanthomonas vesicatoria 815; assay: Inhibition zone, agar plate; type: cell-based; conditions: 15λ, read-out: Inhibition Zone Diameter
[3] = test system: Streptococcus agalactiae 2875; assay: Inhibition zone, agar plate; type: cell-based; conditions: 15λ, read-out: Inhibition Zone Diameter
Aspergillus niger 442 = assay: Inhibition zone, agar plate; type: cell-based; conditions: 15λ, read-out: Inhibition Zone Diameter
[4] = test system: Peptostreptococcus anaerobius 3282; assay: Anaerobic agar dilution, Wilkens-Chalgren agar; type: cell-based; conditions: Peptostreptococcus anaerobius, 3282, 48 h
C. perfringens 3508 = assay: microbe, parasite or virus in culture; type: cell-based; conditions: Clostridium perfringens, 3508, 48 h
[5] = test system: Ps. aeruginosa RPL11+ 3350; assay: Agar dilution, trypticase soy agar; conditions: Pseudomonas aeruginosa, 20 h
Pasteurella = assay: Combined therapy with erythromycin in infected mice; conditions: L-654,040 combined with erythromycin, Pasteurella infection

C[C@H](CNC(=O)[C@H]1N=C(c2cccc(O)c2O)O[C@@H]1C)C(=O)N[C@@H]1CCCN(O)C1=O [L-654,040, 2-(2,3-dihydroxyphenyl)-4,5-dihydro-N-[3-[(1-hydroxy-2-oxo-3(R)-piperidinyl)-amino]-2(R)-methyl-3-oxopropyl]-5R-methyl-4S-oxazolecarboxamide]
zone of inhibition at 500 µg/mL ([1]; 0.5 mg/ml in distilled H2O): 18 mm | zone of inhibition at 2000 µg/mL ([1]; 2 mg/ml in distilled H2O): 25 mm | zone of inhibition at 500 µg/mL ([2]; 0.5 mg/ml in distilled H2O): 0 mm | zone of inhibition at 2000 µg/mL ([2]; 2 mg/ml in distilled H2O): 0 mm | zone of inhibition at 500 µg/mL ([3]; 0.5 mg/ml in distilled H2O): 12 mm | zone of inhibition at 2000 µg/mL ([3]; 2 mg/ml in distilled H2O): 13 mm | zone of inhibition at 500 µg/mL (Aspergillus niger 442; 0.5 mg/ml in distilled H2O): 0 mm | zone of inhibition at 2000 µg/mL (Aspergillus niger 442; 2 mg/ml in distilled H2O): 0 mm | MIC [4]: > 128 µg/mL | MIC (C. perfringens 3508): 64 µg/mL (≈ 147 µM) | MIC [5]: > 128 µg/mL | efficacy of combined therapy versus erythromycin alone (Pasteurella): slightly more effective than erythromycin alone but not to a degree considered to be synergistic
